Experimental data reported in PubChem BioAssay AID179 (DTP/NCI, 2004).
Active and inactive are the calls of the source.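 Rule for the calls: active = compounds giving half or more protection of infected cells from virus-caused growth loss, again on retest; inactive = the rest.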 Where a SMILES comes first, the peptide text is derived from it. Bridges are numbered along the chain shown (N, C = ends).

Test system: CEM cells HIV-1 protection, formazan growth assay
Assay: NCI AIDS Antiviral Assay
Details: for IC50: measured here: growth of uninfected CEM cells
Outline: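 Screen of anti-HIV-1 activity in human CEM cells using a formazan-based growth measurement at five drug concentrations. Hits with 50% or greater protection were repeated, and confirmation required reproducible complete protection.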

| Structure (SMILES) | outcome | EC50 [µM] | IC50 [µM] |
| --- | --- | --- | --- |
| C[n+]1c2ccccc2cc2c(CNC(CCCN=C(N)N)C(=O)O)cccc21 (stereo not drawn) | inactive | – | – |
| O=P(CP(=O)(c1ccccc1)c1ccccc1)(c1ccccc1)c1ccccc1.[CH3][Sn]([CH3])([Cl])[Cl] | inactive | – | – |
| C/C(C=C(C#N)C#N)=C\c1ccccc1 | – | > 97.7 | 39.8 |
| Cc1ccccc1NC(=O)CC(=O)NNC(Sc1ccccc1)c1cc(N=Nc2ccc(Br)cc2)ccc1O (stereo not drawn) | – | > 100 | 1.23 |
| COC(=O)C1=C(C)C(=O)C2(CCCCCC2C(=O)OC)C1 (stereo not drawn) | – | > 200 | > 200 |
| COCc1ccc2c(c1)C(O)NC(=O)O2 (stereo not drawn) | – | > 200 | 58.9 |
| CCc1cccc(C)c1NC(=O)CCc1nnc2s/c(=C\c3cccc4ccccc34)c(=O)n12 | – | > 200 | 191 |
| Cc1cccc2c1c(=O)c1c(O)cc3c(c1n2C)C=CC(C)(C)O3 | – | 32.4 | > 200 |
| CC(C)(C)C1CCC2c3c([nH]c4ccccc34)C3C(=O)N(c4ccc(C#N)cc4)C(=O)C3C2C1 (stereo not drawn) | – | > 200 | 10 |
| OC1CN=C2c3ccccc3C(O)(c3ccc(Cl)cc3)N2C1 (stereo not drawn) | – | > 200 | 44.7 |
| CCOC(=O)/C(=C\c1ccc(C#N)cc1)[Se]c1ccccc1 | – | > 52.5 | > 52.5 |
| CC(=O)Oc1c(N2CCCCC2)c(C(=O)c2ccccc2)c(O)c2ccn(N(C)C)c12 | – | > 200 | 8.32 |
| COC12C(COC(N)=O)C3=C(C(=O)C(C)=C(N4CCN(C)CC4)C3=O)N1CC1NC12 (stereo not drawn) | – | > 200 | 110 |
| COc1nc2ncc([C@@H](OC(C)=O)[C@@H](COC(C)=O)OC(C)=O)nc2c(=O)n1C | – | > 200 | > 200 |
| COC(=O)c1nn(-c2ccc(Cl)cc2)c2nc3ccccc3c-2c1C(=O)OC | – | > 32.4 | > 32.4 |
| Cc1ccc(S(=O)(=O)Nn2c(-c3ccccc3)c(C#N)c(-c3ccc(Cl)cc3)c(C#N)c2=O)cc1 | – | > 200 | 38.9 |
| COc1ccc(/C=C2\c3cc(OC)c(OC)cc3CCN2C(=O)c2ccccc2)cc1OC | – | > 200 | 57.5 |
| CC1CCCN2C(=O)CN(N3CCOCC3)CC(=O)N12 (stereo not drawn) | – | > 200 | > 200 |
| CCCC(=O)C(CC)/C(CCC(=O)N(Cc1ccccc1)Cc1ccccc1)=N/NC(=O)C[N+](C)(C)C (stereo not drawn) | inactive | – | – |
| CC(=O)Oc1ccc2c(oc(=O)c3nc(C)oc32)c1C | – | > 200 | 145 |
| O=C(O)c1cccc2cccc(-c3c4ccc(=O)c(O)c-4oc4c(O)c(O)ccc34)c12 | – | 29.5 | 33.1 |
| COC(=O)/C(=N/NC(=O)C[N+](C)(C)C)C(C(=O)OC)C(=O)C(=O)Nc1ccc(F)cc1 (stereo not drawn) | – | > 145 | > 145 |
| CN1COc2ccc(Br)cc2C1 | inactive | – | – |

| Structure (SMILES) | outcome | EC50 [µM] | IC50 [µM] |
| --- | --- | --- | --- |
| Cc1ccc(C(=O)/C=C/c2ccco2)cc1 | – | > 170 | 53.7 |
| COc1ccc(-c2oc(=O)c3ccccc3c2-c2ccccc2)cc1 | – | > 15.8 | > 15.8 |
| O=S(=O)(O)C(C(I)I)S(=O)(=O)O | – | > 200 | > 200 |
| CCCCNC(=S)/N=C/c1c(O)c2ccccc2[nH]c1=O | – | > 200 | > 200 |
| O=[N+]([O-])c1cccc([N+](=O)[O-])c1Cl | – | > 200 | 16.6 |
| C(/C=C\c1ccccc1)=Nc1ccccc1 | – | > 34.7 | > 34.7 |
| O=c1c2c3ccccc3[nH]c2c2cccc3c2n1CCC3 | – | > 200 | 61.7 |
| NC(=O)/N=C1/CCC2C3CCCC2C13 | inactive | – | – |
| COC(=O)[C@@H]1CSC(=S)N1C(=O)C[C@H]1CC=CC[C@H]1CC(=O)Sc1ccccc1 | inactive | – | – |
| Cc1ccc(S(=O)(=O)c2ccc(O)cc2)cc1 | – | > 200 | 129 |
| COc1cc(/C=C/C(=O)c2c(=O)o[nH][n+]2-c2ccccc2)ccc1[O-] | inactive | – | – |
| C[C@]12C[C@@H](c3ccccc3)Nc3ccccc3N1C(c1ccccc1)=NO2 | – | > 200 | 30.9 |
| CCC(C)C1NC(=O)C(CC(C)C)NC(=O)C(C(C)C)NC(=O)C2CSSCC(NC1=O)C(=O)N2 (stereo not drawn) (cyclo(CCVLI); disulfide 1-2; configuration not given here) | – | > 2 | 0.339 |
| O=[N+]([O-])C1C2C=CC(C2)[C@H]1c1ccco1 (stereo partly drawn) | inactive | – | – |
| COc1ccc(C[N+](C)(C)N)cc1OC | – | > 200 | > 200 |
| N=c1oc2cc(O)ccc2cc1C(=O)NCc1ccccc1 | – | > 200 | 20 |
| C(COC1CC2CC1C1CC3OC3C21)OCCOC1CC2CC1C1CC3OC3C21 (stereo not drawn) | – | > 200 | 77.6 |
| CC(=O)CC(O)(C(F)(F)Cl)C(F)(F)Cl | inactive | – | – |
| OC(c1ccoc1)c1cc2ccccc2s1 (stereo not drawn) | – | > 200 | 44.7 |
| O=C(Nc1ccc([N+](=O)[O-])cc1)N(c1ccccn1)c1ccccn1 | – | > 200 | 151 |
| O=C(c1ccccc1[N+](=O)[O-])C(Br)C(Br)c1ccc(Cl)c(Cl)c1 (stereo not drawn) | – | > 20 | 1 |
| CSc1nnc(COc2ccc(Cl)cc2)o1 | – | > 263 | > 263 |
| CC(C)c1cc(C(C)C)c(B(c2ccccc2)c2ccccc2)c(C(C)C)c1B(c1ccccc1)c1ccccc1 | – | > 100 | > 100 |

| Structure (SMILES) | outcome | EC50 [µM] | IC50 [µM] |
| --- | --- | --- | --- |
| CC(C)C(O)S(=O)(=O)O (stereo not drawn) | – | > 200 | > 200 |
| CCOC(=O)/C(O)=C/c1cc(=O)n(C)c2ccccc12 | – | > 200 | > 200 |
| COc1cc(C(=O)O[C@H]2CCC3CCC2N3C)cc(OC)c1OC (stereo partly drawn) | – | > 200 | > 200 |
| COc1ccc(C2S/C(=C\c3ccc([N+](=O)[O-])cc3)C(=O)N2NC(=O)Cc2ccccc2)cc1 (stereo not drawn) | – | > 55 | > 55 |
| Cc1ccc(SCC(CSCCO)OCn2cnc3c2NC(N)=NC32OCCO2)cc1 (stereo not drawn) | – | > 200 | > 200 |
| COC(=O)c1ccc(NCc2cc(OC)ccc2OC)cc1 | – | > 200 | 24 |
| CC1(C)C(=O)/C=C\C(=O)C(C)(C)C(=O)/C=C\C(=O)C(C)(C)C2=CC=C(O2)C(C)(C)C(=O)/C=C\C1=O | inactive | – | – |
| Cc1nc(NS(=O)(=O)c2ccc(NC(=O)c3ccccc3SC(=O)CCCC[n+]3ccccc3)cc2)oc1C | – | 16.6 | 52.5 |
| CCC(=O)C(CCN1CCC(n2c(=O)[nH]c3ccccc32)CC1)(c1ccccc1)c1ccccc1 | – | > 200 | 19.1 |
| O=S(=O)(O)c1ccc(SSc2ccc(S(=O)(=O)O)cc2)cc1 | – | > 200 | > 200 |
| Nc1ccc2oc(=O)ccc2c1 | – | > 1260 | 8.91 |
| O=C(NCCc1ccccc1)[C@H]1CCCC[C@@H]1CCO | – | > 200 | > 200 |
| Cc1ccc2c(/C=C/c3ccc(N(C)C)cc3)ccc(C(C)C)cc1-2 | – | > 200 | 151 |
| CC1CCCc2c(C#N)c(N)nc(-c3ccc(Cl)cc3)c21 (stereo not drawn) | – | > 200 | 26.9 |
| CCOC(=O)CSc1c(C(=O)OCC)c(=O)n(-c2ccccc2)c(=S)n1-c1ccccc1 | – | > 200 | 31.6 |
| CC1C(c2ccc(F)cc2)c2cc3c(cc2OC1N1CCCC1)OCO3 (stereo not drawn) | – | > 200 | 129 |
| CCN(CC)Cc1cc2[nH]c3c4ccc(Cl)cc4ncc3c2cc1OC (tested in a mixture with another compound) | – | > 100 | 0.457 |
| COc1cc(-c2cc(=O)c3c(O)c(OC)c(OC)cc3o2)ccc1O | – | > 11 | > 11 |
| CCOC(=O)C1=C(O)c2ccc(OC)cc2C(=O)C1=O | – | > 339 | 204 |
| COc1cc2c(c(OC)c1OC)[C@@H]1CCCCC[C@@H]1CCC2=O | – | > 251 | 112 |
| O=C1/C(=C/c2ccccc2)CNC/C1=C\c1ccccc1 | inactive | – | – |
| O=C(O)c1c(CC(Cc2ccccc2)C(=O)O)ccc2c1CCC2 (stereo not drawn) | – | > 200 | > 200 |
| COC1N(C2C=CC(CO)O2)C(=O)NC(=O)C1(C)Br (stereo not drawn) | – | 100 | 129 |

| Structure (SMILES) | outcome | EC50 [µM] | IC50 [µM] |
| --- | --- | --- | --- |
| COc1cc(C=C2C(=O)NC(=O)NC2=O)ccc1OCc1ccccc1 | – | > 93.3 | 89.1 |
| NCCCNCCCCN(CCCN)/[N+]([O-])=N\O | – | > 6030 | 145 |
| CCN1C(=O)C(=C/C=C/C=C2/N(C)c3ccccc3C2(C)C)C(=O)N(CC)C1=S | – | > 200 | 18.6 |
| CC(=O)NNc1nc(C)c(C(=O)NNC(=O)C(=O)Nc2c(C)cccc2C(C)C)s1 | – | > 60.3 | 52.5 |
| OC[C@H]1CC(c2nn[nH]n2)[C@H](O)[C@@H]1O (stereo partly drawn) | – | > 200 | > 200 |
| O=C(O)C1CC(c2ccc(F)cc2)=Nc2ccc(F)cc2S1 (stereo not drawn) | – | > 200 | > 200 |
| COc1cc(CNC(=S)CCCCCCCCCCC(C)C)ccc1O | inactive | – | – |
| CC(C)OC(=O)C(NC(=O)C(CC(=O)OCc1ccccc1)NC(=O)OCc1ccccc1)NC(=O)C1C(C)(C)CCC1(C)C (stereo not drawn) | – | > 200 | 12.6 |
| Cc1ccc(S(=O)(=O)c2ccc(C)cc2[N+](=O)[O-])cc1 | – | > 24.5 | > 24.5 |
| Cc1cc2nnn(C3CCCCO3)c2cc1C (stereo not drawn) | – | > 200 | 174 |
| O=C1NN(Cc2ccccc2)C(=O)N2CCC[C@@H]12 | – | > 200 | > 200 |
| NC1Cc2ccccc2OC1=O (stereo not drawn) | – | > 200 | > 200 |
| CC(=O)OC1C=CC(OC(C)=O)C2C1[C@H]1C3C=CC=CC3[C@@H]2S1=O (stereo partly drawn) | – | > 200 | 112 |
| O=C1C(=O)c2ccccc2C(O)=C1Nc1ccc(Cl)cc1 | inactive | – | – |
| O=C(COc1ccccc1Cl)N1N=C(c2ccc(Cl)cc2)CC1(O)c1ccccc1 (stereo not drawn) | – | > 4.57 | > 4.57 |
| COc1ccc(/C=N/NC(=O)c2ccccc2Nc2ccccc2C(=O)N/N=C/c2ccc(OC)cc2)cc1 | – | > 102 | 85.1 |
| O=c1cc(CNC2CCCC2)[nH]c(=O)[nH]1 | inactive | – | – |
| Cc1cccc2c3c(ccc12)C(=O)OC3=O | inactive | – | – |
| Cc1ccc(C(CO)(CO)OC(CO)(CO)c2ccc(C)c(C)c2)cc1C | – | > 200 | > 200 |
| c1ccc2nc(NCCSSCCNc3cnc4ccccc4n3)cnc2c1 | – | > 200 | 24.5 |
